Source: ChEMBL document CHEMBL5614424, “Natural Product-Inspired Discovery of Naphthoquinone-Furo-Piperidine Derivatives as Novel STAT3 Inhibitors for the Treatment of Triple-Negative Breast Cancer” (J Med Chem, 2024)
Values belong to the compound of their own block, whether it stands above or below them. The source made the active and inactive calls. No cut-off for these calls is given here. Peptide text beside a SMILES is read from it. * marks the point of attachment. Cbz = O=C(OCc1ccccc1)*; CH2F = FC*

Legend:
[1] = system: MDA-MB-231; assay: Induction of apoptosis in human MDA-MB-231 cells assessed as late apoptotic cells at 10 uM measured after 24 hrs incubation by the annexin V/propidium iodide (PI) double staining assay (reference value: 3.08%); assay type: functional
[2] = system: MDA-MB-468; assay: Induction of apoptosis in human MDA-MB-468 cells assessed as late apoptotic cells at 10 uM measured after 24 hrs incubation by the annexin V/propidium iodide (PI) double staining assay (reference value: 4.33%); assay type: functional
[3] = system: MDA-MB-468; assay: Induction of apoptosis in human MDA-MB-468 cells assessed as early apoptotic cells at 10 uM measured after 24 hrs incubation by the annexin V/propidium iodide (PI) double staining assay (reference value: 2.36%); assay type: functional
[4] = system: MDA-MB-231; assay: Induction of apoptosis in human MDA-MB-231 cells assessed as early apoptotic cells at 10 uM measured after 24 hrs incubation by the annexin V/propidium iodide (PI) double staining assay (reference value: 2.37%); assay type: functional
[5] = biological target: T1, Signal transducer and activator of transcription 5A (Homo sapiens) (UniProt P42229); assay: Inhibition of STAT5 activation in human MDA-MB-231 cell assessed as decrease in […] level at 1.25 to 5 uM measured after 24 hrs by Western blot analysis; assay type: cell-based; conditions: dose 1.25-5 µM
T1 sequence (whole entry): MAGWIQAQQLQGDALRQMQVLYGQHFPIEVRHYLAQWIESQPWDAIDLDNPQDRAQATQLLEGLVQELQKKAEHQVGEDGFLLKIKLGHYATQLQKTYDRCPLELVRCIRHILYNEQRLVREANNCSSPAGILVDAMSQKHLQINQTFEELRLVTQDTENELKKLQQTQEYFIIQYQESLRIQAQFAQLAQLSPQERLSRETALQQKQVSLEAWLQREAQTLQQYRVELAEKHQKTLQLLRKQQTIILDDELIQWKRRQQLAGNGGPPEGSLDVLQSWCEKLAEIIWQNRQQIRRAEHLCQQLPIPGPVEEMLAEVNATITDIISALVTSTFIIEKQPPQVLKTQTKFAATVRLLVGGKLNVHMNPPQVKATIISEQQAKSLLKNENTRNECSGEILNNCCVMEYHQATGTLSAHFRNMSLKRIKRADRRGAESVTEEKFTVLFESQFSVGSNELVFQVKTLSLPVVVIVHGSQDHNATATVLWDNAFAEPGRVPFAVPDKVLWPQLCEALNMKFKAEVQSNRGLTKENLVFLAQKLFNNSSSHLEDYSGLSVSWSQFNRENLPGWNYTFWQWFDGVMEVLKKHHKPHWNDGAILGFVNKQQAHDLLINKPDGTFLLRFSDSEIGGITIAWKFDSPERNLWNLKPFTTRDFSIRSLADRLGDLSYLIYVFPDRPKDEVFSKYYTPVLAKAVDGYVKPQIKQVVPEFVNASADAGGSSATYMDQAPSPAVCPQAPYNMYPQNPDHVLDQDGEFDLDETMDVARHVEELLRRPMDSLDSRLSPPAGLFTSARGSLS

[6] = system: MDA-MB-231; assay: Inhibition of cell migration in human MDA-MB-231 cells assessed as decrease in wound closure rate at 5 uM incubated for 6 to 24 hrs by wound healing assay; assay type: functional, cell-based; conditions: time 6-24 hrs
[7] = system: MDA-MB-468; assay: Induction of apoptosis in human MDA-MB-468 cells assessed as up-regulation of cleaved caspase 3 at 2.5 to 5 uM measured after 24 hrs by Western blotting analysis; assay type: functional, cell-based; conditions: dose 2.5-5 µM
[8] = system: MDA-MB-468; assay: Decrease in STAT5 expression level in human MDA-MB-468 cell nucleus at 1.25 to 5 uM measured after 24 hrs by Western blot analysis; assay type: functional, cell-based; conditions: dose 1.25-5 µM
[9] = system: MDA-MB-468; assay: Induction of apoptosis in human MDA-MB-468 cells assessed as up-regulation of cleaved Bax at 2.5 to 5 uM measured after 24 hrs by Western blotting analysis; assay type: functional, cell-based; conditions: dose 2.5-5 µM
[10] = system: MDA-MB-231; assay: Induction of apoptosis in human MDA-MB-231 cells assessed as up-regulation of cleaved caspase 3 at 2.5 to 5 uM measured after 24 hrs by Western blotting analysis; assay type: functional, cell-based; conditions: dose 2.5-5 µM
[11] = system: MDA-MB-231; assay: Decrease in STAT5 expression level in human MDA-MB-231 cell cytoplasm at 1.25 to 5 uM measured after 24 hrs by Western blot analysis; assay type: functional, cell-based; conditions: dose 1.25-5 µM
[12] = system: MDA-MB-231; assay: Induction of apoptosis in human MDA-MB-231 cells assessed as up-regulation of cleaved caspase 9 at 2.5 to 5 uM measured after 24 hrs by Western blotting analysis; assay type: functional, cell-based; conditions: dose 2.5-5 µM
[13] = system: MDA-MB-468; assay: Induction of apoptosis in human MDA-MB-468 cells assessed as […] at 2.5 to 5 uM measured after 24 hrs by Western blotting analysis; assay type: functional, cell-based; conditions: dose 2.5-5 µM
[14] = system: MDA-MB-231; assay: Anti-invasion ability in human MDA-MB-231 cells assessed as reduction in cell invasion and migration ability rate incubated for 24 hrs by Boyden chamber transwell assay; assay type: functional, cell-based; conditions: dose 1.25-5 µM
[15] = biological target: T2, Signal transducer and activator of transcription 1-alpha/beta (Homo sapiens) (UniProt P42224); assay: Inhibition of STAT1 activation in human MDA-MB-231 cell assessed as decrease in phosphorylated STAT1 (Tyr701) level at 1.25 to 5 uM measured after 24 hrs by Western blot analysis; assay type: cell-based; conditions: dose 1.25-5 µM
T2 sequence (whole entry): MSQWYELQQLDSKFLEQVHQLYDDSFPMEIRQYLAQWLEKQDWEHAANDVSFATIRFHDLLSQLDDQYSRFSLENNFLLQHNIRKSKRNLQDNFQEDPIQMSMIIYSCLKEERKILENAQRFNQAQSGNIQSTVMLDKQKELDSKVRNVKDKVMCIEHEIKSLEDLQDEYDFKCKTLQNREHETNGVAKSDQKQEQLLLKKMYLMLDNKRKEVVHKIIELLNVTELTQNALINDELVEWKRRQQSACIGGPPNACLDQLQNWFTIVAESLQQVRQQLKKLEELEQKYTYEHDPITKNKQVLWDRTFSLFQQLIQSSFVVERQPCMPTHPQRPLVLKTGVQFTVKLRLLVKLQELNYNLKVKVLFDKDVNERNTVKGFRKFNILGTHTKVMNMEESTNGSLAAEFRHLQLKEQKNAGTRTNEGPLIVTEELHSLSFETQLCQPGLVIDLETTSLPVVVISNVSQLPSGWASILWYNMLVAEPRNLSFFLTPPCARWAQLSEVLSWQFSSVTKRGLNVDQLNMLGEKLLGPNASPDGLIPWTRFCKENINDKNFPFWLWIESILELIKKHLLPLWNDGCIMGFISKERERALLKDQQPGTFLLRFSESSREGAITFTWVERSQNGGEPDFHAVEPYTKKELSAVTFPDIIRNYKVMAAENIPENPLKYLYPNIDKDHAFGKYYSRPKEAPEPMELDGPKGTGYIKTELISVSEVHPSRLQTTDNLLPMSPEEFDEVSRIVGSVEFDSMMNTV

[16] = system: MDA-MB-468; assay: Decrease in STAT5 expression level in human MDA-MB-468 cell cytoplasm at 1.25 to 5 uM measured after 24 hrs by Western blot analysis; assay type: functional, cell-based; conditions: dose 1.25-5 µM
[17] = system: MDA-MB-231; assay: Induction of apoptosis in human MDA-MB-231 cells assessed as down-regulation of cleaved […] at 2.5 to 5 uM measured after 24 hrs by Western blotting analysis; assay type: functional, cell-based; conditions: dose 2.5-5 µM
[18] = system: MDA-MB-231; assay: Induction of apoptosis in human MDA-MB-231 cells assessed as down-regulation of cleaved Bcl-2 at 2.5 to 5 uM measured after 24 hrs by Western blotting analysis; assay type: functional, cell-based; conditions: dose 2.5-5 µM
[19] = system: MDA-MB-231; assay: Induction of apoptosis in human MDA-MB-231 cells assessed as up-regulation of cleaved Bax at 2.5 to 5 uM measured after 24 hrs by Western blotting analysis; assay type: functional, cell-based; conditions: dose 2.5-5 µM
[20] = system: MDA-MB-231; assay: In vivo antitumor activity against human MDA-MB-231 cells xenografted in Female BALB/c-nude assessed as up-regulation of C-Caspase 3 expression in tumor tissue at 15 to 30 mg/kg, ip once daily for 21 consecutive days by […]; assay type: functional, organism-based; conditions: dose 15-30 mg/kg, time 21.0 day
[21] = system: MDA-MB-468; assay: Induction of apoptosis in human MDA-MB-468 cells assessed as down-regulation of cleaved Bcl-2 at 2.5 to 5 uM measured after 24 hrs by Western blotting analysis; assay type: functional, cell-based; conditions: dose 2.5-5 µM
[22] = system: MDA-MB-231; assay: In vivo antitumor activity against human MDA-MB-231 cells xenografted in Female BALB/c-nude assessed as increase in TUNEL positive cells in tumor tissue at 15 to 30 mg/kg, ip once daily for 21 consecutive days by TUNEL cell apoptosis assay; assay type: functional, organism-based; conditions: dose 15-30 mg/kg, time 21.0 day
[23] = system: MDA-MB-231; assay: Decrease in STAT5 expression level in human MDA-MB-231 cell nucleus at 1.25 to 5 uM measured after 24 hrs by Western blot analysis; assay type: functional, cell-based; conditions: dose 1.25-5 µM
[24] = system: MDA-MB-468; assay: Induction of apoptosis in human MDA-MB-468 cells assessed as up-regulation of cleaved caspase 9 at 2.5 to 5 uM measured after 24 hrs by Western blotting analysis; assay type: functional, cell-based; conditions: dose 2.5-5 µM
[25] = system: MDA-MB-231; assay: Inhibition of colony formation in human MDA-MB-231 cells assessed as reduction in colony number and size at 1.25 to 5 uM by plate colony formation assay; assay type: functional, cell-based; conditions: dose 1.25-5 µM
[26] = system: MDA-MB-231; assay: In vivo antitumor activity against human MDA-MB-231 cells xenografted in Female BALB/c-nude assessed as down-regulation of p-STAT3 expression in tumor tissue at 15 to 30 mg/kg, ip once daily for 21 consecutive days by […]; assay type: functional, organism-based; conditions: dose 15-30 mg/kg, time 21.0 day
[27] = system: MDA-MB-468; assay: Induction of apoptosis in human MDA-MB-468 cells assessed as late apoptotic cells at 5 uM measured after 24 hrs incubation by the annexin V/propidium iodide (PI) double staining assay (reference value: 3.64%); assay type: functional
[28] = system: MDA-MB-468; assay: Induction of apoptosis in human MDA-MB-468 cells assessed as early apoptotic cells at 5 uM measured after 24 hrs incubation by the annexin V/propidium iodide (PI) double staining assay (reference value: 3.98%); assay type: functional
[29] = Antiproliferative activity against human MCF-10A cells assessed as cell viability incubated for 48 hrs measured after additional incubation with MTT; assay type: toxicity, cell-based
[30] = system: MDA-MB-231; assay: Antiproliferative activity against human MDA-MB-231 cells assessed as cell viability incubated for 48 hrs measured after additional incubation with MTT; assay type: functional, cell-based; conditions: MDA-MB-231, 48 h
[31] = system: MDA-MB-231; assay: Induction of apoptosis in human MDA-MB-231 cells assessed as early apoptotic cells at 5 uM measured after 24 hrs incubation by the annexin V/propidium iodide (PI) double staining assay (reference value: 2.46%); assay type: functional
[32] = system: MDA-MB-468; assay: Antiproliferative activity against human MDA-MB-468 cells assessed as cell viability incubated for 48 hrs measured after additional incubation with MTT; assay type: functional, cell-based; conditions: MDA-MB-468, 48 h
[33] = system: MDA-MB-231; assay: Induction of apoptosis in human MDA-MB-231 cells assessed as late apoptotic cells at 5 uM measured after 24 hrs incubation by the annexin V/propidium iodide (PI) double staining assay (reference value: 2.69%); assay type: functional

Compound: CC(C)[C@H](NC(=O)OCc1ccccc1)C(=O)N[C@@H](C)C(=O)N[C@@H](CC(=O)O)C(=O)CF (Cbz-Val-Ala-Asp-CH2F)
- Activity [1]: 2.63%
- Activity [2]: 2.19%
- Activity [3]: 5.02%
- Activity [4]: 2.76%

- inhibition [5]: inactive
- inhibition [15]: inactive
Compound: CC(C)C[C@@H](CO)N1CCc2c(oc3c2C(=O)C(=O)c2ccccc2-3)C1
- inhibition [6]: Active
- Activity [7]: Active
- Activity [8]: Active
- Activity [9]: Active
- Activity [10]: Active
- Activity [11]: inactive
- Activity [12]: Active
- Activity [13]: Active
- Activity [14]: Dose-Dependent Effect
- Activity [16]: inactive
- Activity [17]: Active
- Activity [18]: Active
- Activity [19]: Active
- Activity [20]: Active
- Activity [21]: Active
- Activity [22]: Active
- Activity [23]: Active
- Activity [24]: Active
- inhibition [25]: Active
- Activity [26]: Active

- IC50 [30]: 2.94 µM
- IC50 [32]: 5.22 µM
Compound: CC(=O)c1cc2c(o1)C(=O)c1ccccc1C2=O [NAPABUCASIN]
- Activity [27]: 10%
- Activity [28]: 6.32%
- IC50 at 48 h [29]: 7.94 µM
- Activity [31]: 4.76%
- Activity [33]: 12.07%
